Experiment [1] addresses human TYK2 (JH2domain-pseudokinase) (Homo sapiens (Human), UniProt P29597). In words: TYK2 JH2 Domain Binding Assay (KINOMEscan). The method, boiled down:
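Kds, run in duplicate, came from Hill fits (slope fixed at −1) of an 11-point 3-fold dilution series starting at 30,000 nM. Bead-retained TYK2 JH2 (aa G556–D888)–NFkB DBD fusion, DNA-tagged and expressed in HEK293 cells, was read by qPCR after 1 h room-temperature binding in 0.9% DMSO.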

The target in experiment [2] is Tyk2 kinase domain (DH1) (Homo sapiens (Human), UniProt P29597). Description: Tyk2 Radioactive Kinase Assay. The format is biochemical. The note with it: compound at 10 μM, ATP 10 μM; for inhibition at 10 µM: read-out: Tyk2 JH1% Inhibition @ 10 μM. The method, boiled down: (§1)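 Values are single-concentration percent inhibition figures. They were obtained with 10 μM compound in a radioactivity-based kinase assay run separately on each enzyme.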
Sequence of Tyk2 kinase domain (DH1) (P29597 897-1176): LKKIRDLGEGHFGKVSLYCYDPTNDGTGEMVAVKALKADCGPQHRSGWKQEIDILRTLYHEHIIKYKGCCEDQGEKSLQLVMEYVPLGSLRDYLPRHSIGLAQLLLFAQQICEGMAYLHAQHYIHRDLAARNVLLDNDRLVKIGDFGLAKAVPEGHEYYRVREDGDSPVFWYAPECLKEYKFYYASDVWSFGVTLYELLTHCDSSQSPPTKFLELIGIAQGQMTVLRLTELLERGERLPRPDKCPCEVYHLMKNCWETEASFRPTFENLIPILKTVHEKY

Experiment [3] addresses JAK2 kinase domain (JH1) (Homo sapiens (Human), UniProt O60674). In words: JAK2 Radioactive Kinase Assay. The format is biochemical. The note with it: compound at 10 μM, ATP 10 μM; for inhibition at 10 µM: read-out: JAK2 JH1% Inhibition @ 10 μM. The method, boiled down:
as §1

SMILES strings stand for the structures.

Sequence of JAK2 kinase domain (JH1) (O60674 849-1124): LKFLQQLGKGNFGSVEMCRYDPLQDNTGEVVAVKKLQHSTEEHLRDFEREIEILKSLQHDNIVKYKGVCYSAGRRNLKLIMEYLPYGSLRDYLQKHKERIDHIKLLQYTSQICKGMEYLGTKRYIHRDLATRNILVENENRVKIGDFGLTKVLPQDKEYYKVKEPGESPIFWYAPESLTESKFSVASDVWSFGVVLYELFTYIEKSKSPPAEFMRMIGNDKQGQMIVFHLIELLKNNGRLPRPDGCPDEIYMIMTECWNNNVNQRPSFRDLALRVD
Sequence of human TYK2 (JH2domain-pseudokinase) (P29597 556-888): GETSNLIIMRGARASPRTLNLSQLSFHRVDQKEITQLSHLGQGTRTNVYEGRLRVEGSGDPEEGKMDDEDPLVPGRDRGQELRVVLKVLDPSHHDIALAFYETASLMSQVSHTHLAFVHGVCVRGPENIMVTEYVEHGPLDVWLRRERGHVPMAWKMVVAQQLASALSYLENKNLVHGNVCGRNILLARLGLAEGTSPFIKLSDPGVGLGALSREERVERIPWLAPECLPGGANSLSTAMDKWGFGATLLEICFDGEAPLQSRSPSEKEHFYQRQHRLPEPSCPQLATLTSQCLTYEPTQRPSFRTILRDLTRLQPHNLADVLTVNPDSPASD

What is called Kd is the constant that tells how readily two partners part at equilibrium. Higher therefore signals weaker binding. In turn, `CNc1cc(-c2cn(CCN3CCOCC3)c3ncccc23)nc2c(C(=O)N[C@@H]3CC[C@@H]3O)cnn12` [I-779] returned a Kd in experiment [1] of 0.2 to 1 nM. In addition, the “Tyk2 JH1% Inhibition @ 10 μM” value in experiment [2] is recorded as “A (percent inhibition at 10 μM lower than 50)”. Also, the “JAK2 JH1% Inhibition @ 10 μM” value in experiment [3] was “A (percent inhibition at 10 μM lower than 50)”.

`CNc1cc(Nc2cccn([C@@H]3CCCOC3)c2=O)nc2c(C(=O)N[C@H]3CCC[C@H](O)C3)cnn12` [I-781]: the Kd in experiment [1] was under 0.2 nM. Besides, the “Tyk2 JH1% Inhibition @ 10 μM” value in experiment [2] was “A (percent inhibition at 10 μM lower than 50)”. In experiment [3], the “JAK2 JH1% Inhibition @ 10 μM” value was “A (percent inhibition at 10 μM lower than 50)”.

In experiment [1], `CNc1cc(Nc2cccn([C@H]3CCCOC3)c2=O)nc2c(C(=O)N[C@H]3COC[C@H]3O)cnn12` [I-784] displayed a Kd of over 10 nM. In experiment [2], the “Tyk2 JH1% Inhibition @ 10 μM” value is recorded as “A (percent inhibition at 10 μM lower than 50)”. Besides, the “JAK2 JH1% Inhibition @ 10 μM” value in experiment [3] was “A (percent inhibition at 10 μM lower than 50)”.

The term inhibition denotes the share of the control response that was lost under treatment. Regarding `CNc1cc(Nc2cccn([C@H]3CCCOC3)c2=O)nc2c(C(=O)N[C@@H]3COC[C@@H]3O)cnn12` [I-785], the Kd in experiment [1] is under 0.2 nM. For the same compound, the inhibition at 10 µM in experiment [2] and in experiment [3] was under 50% throughout.

As for `CNc1cc(Nc2cccn([C@@H]3CCCOC3)c2=O)nc2c(C(=O)N[C@@H]3COC[C@@H]3O)cnn12` [I-787], the Kd in experiment [1] is over 10 nM. For the same compound, the inhibition at 10 µM in experiment [2] and in experiment [3] was under 50% in each case.

Compound `CNc1cc(Nc2cccn([C@@H]3C[C@H]3F)c2=O)nc2c(C(=O)NC3CC3)cnn12` [I-788] had a Kd in experiment [1] of under 0.2 nM. In addition, the inhibition at 10 µM in experiment [2] and in experiment [3] was under 50% throughout.

The compound `CNc1cc(-c2cn(CCN3CCOCC3)c3ncccc23)nc2c(C(=O)N[C@@H]3CC[C@H]3O)cnn12` [I-792, N-(2-hydroycyclobutyl)-7-(methylamino)-5-(1-(2-morpholinoethyl)-1H-pyrrolo[2,3-b]pyridine-3-yl)pyrazolo[1,5-a]pyrimidine-3-carboxamide] returned a Kd in experiment [1] of under 0.2 nM. Further, the inhibition at 10 µM in experiment [2] and in experiment [3] was under 50% each time.

`CNc1cc(-c2cn(CCN3CCCCC3)c3ncccc23)nc2c(C(=O)N[C@@H]3CC[C@@H]3O)cnn12` [I-793] had a Kd in experiment [1] of under 0.2 nM. In addition, the inhibition at 10 µM in experiment [2] and in experiment [3] was under 50% throughout.

`CNc1cc(-c2cn(CCN3CCCCC3)c3ncccc23)nc2c(C(=O)N[C@@H]3CC[C@H]3O)cnn12` [I-794] returned a Kd in experiment [1] of under 0.2 nM. Also, the inhibition at 10 µM in experiment [2] and in experiment [3] was under 50% throughout.

Consider `CNc1cc(Nc2cccn([C@H]3CCC[C@@H](OC)C3)c2=O)nc2c(C(=O)N[C@@H]3C[C@@H]3F)cnn12` [I-795], for which the equilibrium dissociation constant (Kd) in experiment [1] is under 0.2 nM. Further, the inhibition at 10 µM in experiment [2] and in experiment [3] was under 50% each time.

Take `CNc1cc(-c2cn(CCN3CCOCC3)c3ncccc23)nc2c(C(N)=O)cnn12` [I-796, 7-(methylamino)-5-(1-(2-morpholinoethyl)-1H-pyrrolo[2,3-b]pyridin-3-yl)pyrazolo[1,5-a]pyrimidine-3-carboxamide]: the Kd in experiment [1] is under 0.2 nM. The inhibition at 10 µM in experiment [2] and in experiment [3] was under 50% each time.

With `CNc1cc(-c2cn(CCN3CCCCC3)c3ncccc23)nc2c(C(N)=O)cnn12` [I-797], the Kd in experiment [1] is under 0.2 nM. Also, the inhibition at 10 µM in experiment [2] and in experiment [3] was under 50% each time.

As to `CNc1cc(Nc2cc(Cl)cn([C@@H]3CCCOC3)c2=O)nc2c(C(=O)N[C@H]3[C@@H]4COC[C@@H]43)cnn12` [I-799], the dissociation constant (Kd) in experiment [1] is 0.2 to 1 nM. Moreover, the inhibition at 10 µM in experiment [2] and in experiment [3] was under 50% in each case.

With `CNc1cc(Nc2cc(Cl)cn([C@H]3CCCOC3)c2=O)nc2c(C(=O)N[C@H]3[C@@H]4COC[C@@H]43)cnn12` [I-800], in experiment [1], the Kd lay in the range of 0.2 to 1 nM. Besides, the inhibition at 10 µM in experiment [2] and in experiment [3] was under 50% in each case.

Source of the values: patent US10508120B2, “TYK2 inhibitors and uses thereof” (Nimbus Lakshmi, Inc., priority 2017, dated 2019).
